Data on two compounds can be found in patent US20260240799A1, “TREATMENT OF PRIMARY BILIARY CHOLANGITIS” (Genfit, priority 2023, published 2026).

Data set [1] concerns patients with PBC. The data set is described as follows: safety and tolerability in PBC patients. Type of data set: in vivo, human.
For data set [2], the system named is participants with primary biliary cholangitis. Briefly: PROMIS Fatigue SF 7a T-score in phase 3 trial NCT04526665 (ELATIVE). Set-up: key to PROMIS Fatigue T-score, observed mean / PROMIS Fatigue T-score, observed median: standardized T-score, mean 50, SD 10; higher = more fatigue. The format is in vivo, human. The conditions noted are these: for Change from baseline in PROMIS Fatigue T-score, mean / Change from baseline in PROMIS Fatigue T-score, median / Change from baseline in PROMIS Fatigue T-score, LS means (MMRM) / Change from baseline in PROMIS Fatigue T-score, LS means difference with placebo (MMRM) / PROMIS Fatigue T-score, observed mean / PROMIS Fatigue T-score, observed median: 80 mg once daily. An excerpt:
The patient's fatigue can be measured using the PROMIS Short Form—Fatigue 7a questionnaire (V1.0) to assess change from baseline in fatigue during treatment. The PROMIS Fatigue item banks assess a range of self-reported symptoms over the past seven days, from mild subjective feelings of tiredness to an overwhelming, debilitating, and sustained sense of exhaustion that likely decreases one's ability to execute daily activities and function normally in family or social roles. Fatigue is divided into the experience of fatigue (frequency, duration, and intensity) and the impact of fatigue on physical, mental, and social activities. PROMIS instruments are scored using item-level calibrations. The final score is represented by the T-score, a standardized score with a mean of 50 and a standard deviation (SD) of 10. A 1-point decrease of the PROMIS Fatigue T-score represents a meaningful change in fatigue. This improvement corresponds to changes in alertness and well-being that are easily noticeable. Likewise, a noticeable worsening corresponds to a 1-point increase of the PROMIS Fatigue T-score (Schattenberg et al.; “Evaluating Pruritus and Fatigue in Patients with Treatment-Refractory Primary Biliary Cholangitis” EASL 21-24 Jun. 2023).
Participants aged 18 to 75 years, who had been diagnosed with primary biliary cholangitis according to established criteria, were recruited at 82 sites in 14 countries. Inclusion criteria were an alkaline phosphatase level of ≥1.67 times the upper limit of the normal range (ULN), and a total bilirubin level of ≤2 times the ULN. Prior to screening, eligible participants had received 13 to 15 mg/kg ursodeoxycholic acid treatment per day for at least 12 months (stable dose for at least 3 months) or were intolerant to ursodeoxycholic acid (no treatment for at least 3 months).
In this double-blind, placebo-controlled, phase 3 trial, participants with an inadequate response or intolerance to ursodeoxycholic acid were randomized 2:1 to receive elafibranor 80 mg or placebo once daily. Participants receiving stable doses of ursodeoxycholic acid for at least three months prior to enrollment continued their treatment regimen throughout the trial. The overall double-blind treatment period consisted of two parts. In part one, all randomized patients received a minimum of 52 weeks of double-blind treatment. In part two, participants continued to receive double-blind treatment beyond Week 52 in a variable treatment period until all participants had completed their Week 52 assessment or until a maximum treatment duration of 104 weeks, whichever came first. The first database lock occurred after the last participant completed its Week 52 visit in the double-blind period. At the end of the double-blind period (lasting 52 to 104 weeks), participants could optionally enter an open-label extension where they would receive elafibranor 80 mg for up to five years.
From September 2020 through May 2023, 161 participants were randomly assigned to receive elafibranor 80 mg (108 participants) or placebo (53 participants); these participants made up the intent-to-treat (ITT) and safety populations. The pruritus intent-to-treat population included 66 participants with moderate-to-severe pruritus (44 receiving elafibranor, 22 receiving placebo).
The Patient Reported Outcome Measurement Information System (PROMIS®) is the product of a massive effort begun in 2004 and based on modern measurement theory, to address the need to develop precise, consensus measures of health outcome, including fatigue, suitable for use across chronic diseases in particular PBC. The PROMIS Fatigue Short Form 7a (PROMIS Fatigue SF 7a) is a seven-item questionnaire derived from the 95-item PROMIS Fatigue item bank. […]

The subject of data set [3] is serum alkaline phosphatase (ALP). Briefly: serum ALP change in phase 3 study on PBC (ELATIVE). Type of data set: in vivo, human. The conditions noted are these: elafibranor 80 mg treatment group; PBC (placebo 3.2%).
The test system of data set [4] is patients with PBC. The conditions noted are these: cited from earlier work.
Where [5] appears, read: Week 4, Pruritus ITT analysis set.
Setting [6] is: Week 13, Pruritus ITT analysis set.
Setting [7] is: Week 26, Pruritus ITT analysis set.
Setting [8] is: Week 39, Pruritus ITT analysis set.
Where [9] appears, read: Week 52, Pruritus ITT analysis set.

“Also recorded” adds a separate entry of the source.

For the compound `CSc1ccc(C(=O)C=Cc2cc(C)c(OC(C)(C)C(=O)O)c(C)c2)cc1` [Elafibranor, 2-(2,6-dimethyl-4-{3-[4-(methylsulfanyl)phenyl]-3-oxopropen-1-yl}phenoxy)-2-methylpropanoic acid], the safety and tolerability result in the data set with patients with PBC [1] is “safe and well-tolerated”. Also, the “effect on fatigue (PROMIS Fatigue SF 7a) compared to placebo, in words” value in data set [2] (80 mg daily, participants with PBC) is “significative reduction; also recorded: improvement in fatigue”. The “Change from baseline in PROMIS Fatigue T-score, mean” value in data set [2] (Week 4, ITT analysis set) is reported as −1.66; in data set [2] (setting [5]), −2.86; in data set [2] (Week 13, ITT analysis set), −2.24; in data set [2] (setting [6]) it was −3.54; in data set [2] (Week 26, ITT analysis set) it was −2.23; in data set [2] (setting [7]) it was −3.50. Moreover, the “Change from baseline in PROMIS Fatigue T-score, mean” value in data set [2] (Week 39, ITT analysis set) is recorded as −2.41; in data set [2] (setting [8]), −4.54; in data set [2] (Week 52, ITT analysis set) it was −2.75; in data set [2] (setting [9]), −4.58. Besides, the “Change from baseline in PROMIS Fatigue T-score, median” value in data set [2] (Week 4, ITT analysis set) is −1.60; in data set [2] (setting [5]), −2.70; in data set [2] (Week 13, ITT analysis set), −1.50; in data set [2] (Week 26, ITT analysis set) it was −1.55; in data set [2] (setting [7]), −3.20; in data set [2] (Week 39, ITT analysis set) it was −1.45. For the same compound, the “Change from baseline in PROMIS Fatigue T-score, median” value was −4.05 in data set [2] (setting [8]); −2.80 in data set [2] (Week 52, ITT analysis set); −4.20 in data set [2] (setting [9]). For the same compound, the “Change from baseline in PROMIS Fatigue T-score, LS means (MMRM)” value in data set [2] (Week 13, ITT analysis set) is recorded as −2.16; in data set [2] (setting [6]), −3.50; in data set [2] (Week 52, ITT analysis set), −2.45; in data set [2] (setting [9]), −4.53. The “Change from baseline in PROMIS Fatigue T-score, LS means difference with placebo (MMRM)” value was −2.11 in data set [2] (Week 13, ITT analysis set); −3.15 in data set [2] (setting [6]); −1.23 in data set [2] (Week 52, ITT analysis set); −3.77 in data set [2] (setting [9]). In addition, the “PROMIS Fatigue T-score, observed mean” value is 53.63 in data set [2] (Week 13, ITT analysis set); 57.49 in data set [2] (setting [6]); 53.70 in data set [2] (Week 52, ITT analysis set); 56.23 in data set [2] (setting [9]). For the same compound, the “PROMIS Fatigue T-score, observed median” value in data set [2] (Week 13, ITT analysis set) was 52.95; in data set [2] (setting [6]), 59.20; in data set [2] (Week 52, ITT analysis set), 53.70; in data set [2] (setting [9]), 56.45. The “mean relative change from baseline to endpoint in serum ALP” value in data set [3] is given as −48.3%.

Regarding `CC[C@H]1[C@@H](O)[C@@H]2[C@H](CC[C@]3(C)[C@@H]([C@H](C)CCC(=O)O)CC[C@@H]23)[C@@]2(C)CC[C@@H](O)C[C@@H]12` [OCA, obeticholic acid], the “fatigue as side effect of treatment” value in the data set on patients with PBC [4] is recorded as “one of the most common side effects”.
